Assay results: patent publication US8273337B2, “Hair binding peptides and peptide-based hair reagents for personal care” (Affinergy Inc., priority 2007, dated 2012)
Each block holds one substance with its values, some of them ahead of it.

Assays:
90% gray hair [1] = assay: ELISA hair-binding activity of biotinylated peptides on hair bundles; design: species or system human; conditions: 20 μM biotinylated peptide in TBST and 1 mg/mL BSA, 1 hour at room temperature, 90% gray hair bundles, streptavidin-HRP detection; mean of at least three replicates
Excerpt: Enzyme-linked immunosorbent assay (ELISA) was used to evaluate the hair-binding affinity of the biopanning selected peptide candidates (Example 1; biotinylated peptides SEQ ID NOs: 25, 27, 29, 30, and 32). The identified peptides along with a positive control peptide Gray3 (given as SEQ ID NO: 34; previously reported in co-pending U.S. patent application Ser. No. 11/251,715 corresponding to U.S. Patent Application Publication No. 2006/0073111) were synthesized using standard solid […] synthesis method (U.S. Ser. No. 11/251/715).
The resulting absorbance values, reported as the mean of at least three replicates, and the standard error of the mean (SEM) are given in Table 3.

90% gray hair [2] = conditions: substrate 90% gray hair; peptide concentration giving 50% of the maximum ELISA signal; calculated from Scatchard plots
Procedure: (§1) The MB50 provides an indication of the strength of the binding interaction or affinity of the components of the complex.
as §1
The hair samples were assembled in bundles consisting of 100 hairs about 1 cm long which were bundled together using narrow tape at one end. […] Peptide binding buffer consisting of various concentrations of biotinylated peptide in TBST and 1 mg/mL BSA was added to the hair bundles and incubated for 1 hour at room temperature, followed by 6 TBST washes. […] The results were plotted as A450 versus the concentration of peptide using GraphPad Prism 4.0 (GraphPad Software, Inc., San Diego, Calif.).

Substance: EGASVASASDSVDSSYYSR-GSSGK (biotin) [Aff15017]
- Hair A405 nm (90% gray hair [1]): 0.184

- Hair A405 nm (90% gray hair [1]): 0.448
Substance: Gray3: positive control hair-binding peptide previously reported in U.S. Patent Application Publication No. 2006/0073111 (HDHKNQKETHQRHAA; Hair-binding peptide) [reference compound]

Substance: SSEGASVASASDSVDSSYYSRKSSQKNPHHPKPPKKPTAR-GSSGK (biotin) [Aff15023]
- Hair A405 nm (90% gray hair [1]): 0.66

Substance: SSNDSNVSWFHYYASGLTSSR-GSSG-SRKSSQKNPHHPKPPKKPTAR-GSSGK (biotin) [Aff15025]
- Hair A405 nm (90% gray hair [1]): 0.86

Substance: VRPNLHRKAKAKPDHKQSENRKVPFYSH-GSSGK (biotin) [Aff15012]
- Hair A405 nm (90% gray hair [1]): 0.873
- MB50 (90% gray hair [2]): 24 nM

Substance: SRKSSQKNPHHPKPPKKPTAR-GSSGK (biotin) [Aff15014]
- Hair A405 nm (90% gray hair [1]): 0.871
- MB50 (90% gray hair [2]): 33 nM
